Source: patent publication US5053070A, “Pyrimidine derivatives, preparation processes thereof, herbicide containing the same, and herbicidal compositions containing the same along with other active ingredient” (Mitsui Toatsu Chemicals, Incorporated, priority 1988, dated 1991)

Experiments:
Format in all cases: in vivo
barnyardgrass = assay: Upland foliar application test by mixed formulations (Test 7); settings: Echinochloa crus-galli, 720 h, applied alone, 30th day, read-out: Herbicidal effects (%) Barnyardgrass Ea; for pest or weed control at 1000 g/ha: 1 kg/ha; for pest or weed control at 300 g/ha: 0.3 kg/ha
Experimental: (§1) Resin-made 1/10,000-are pots were filled with the soil of an upland field. Redroot pigweed, morningglories, johnsongrass, barnyardgrass and green foxtail were separately seeded and were allowed to germinate in a green house. When each plant grew to the stage of 2-3 leaves, an emulsion formulated from predetermined amounts of two test compounds of different kinds in a similar manner to the method described in Formulation Example 16 was diluted with water to a predetermined dilution rate and then sprayed at an application rate equal to 5 l per are onto the foliage of each plant by means of a pressure-operated ULV (ultra low volume) sprayer. Influence to the weeds were observed on the 30th day after the spray of the herbicides. In the table, each Ea means an acutally measured value of herbicidal activities when two kinds of herbicides were mixed. Each Ec is an expected value for herbicidal activities, calculated in accordance with the below-described calculation formula proposed by Colby et al. [Colby, S. R., Weed 15, 20-22 (1967)]. Ea>Ec indicates the existence of synergistic action while […] action. [formula] Ec: Growth inhibition rate (%) expected when Ingredient I and Ingredient II are mixed.
(§2) Ex: Growth inhibition rate (%) when treated with Ingredient I alone.
(§3) Ey: Growth inhibition rate (%) when treated with Ingredient II alone.

green foxtail = assay: as above; settings: applied alone, 30th day; for pest or weed control at 1000 g/ha / pest or weed control at 300 g/ha: Setaria viridis, 720 h, read-out: Herbicidal effects (%) Green foxtail Ea; for pest or weed control at 1000 g/ha: 1 kg/ha; for pest or weed control at 300 g/ha / Herbicidal effects (%) Green foxtail Ea: 0.3 kg/ha
Experimental: as §1, §2, §3

johnsongrass [1] = assay: as above; settings: Sorghum halepense, 720 h, applied alone, 30th day, read-out: Herbicidal effects (%) Johnsongrass Ea; for pest or weed control at 1000 g/ha: 1 kg/ha; for pest or weed control at 300 g/ha: 0.3 kg/ha
Experimental: as §1, §2, §3

morningglories = assay: as above; settings: Ipomoea, 720 h, applied alone, 30th day, read-out: Herbicidal effects (%) Morningglory Ea; for pest or weed control at 1000 g/ha: 1 kg/ha; for pest or weed control at 300 g/ha: 0.3 kg/ha
Experimental: as §1, §2, §3

redroot pigweed [2] = assay: as above; settings: Amaranthus retroflexus, 720 h, applied alone, 30th day, read-out: Herbicidal effects (%) Redrood pigweed Ea; for pest or weed control at 300 g/ha: 0.3 kg/ha; for pest or weed control at 1000 g/ha: 1 kg/ha
Experimental: as §1, §2, §3

johnsongrass [3] = assay: Upland foliar application test by mixed formulations, concentration gradient (Test 8); settings: Sorghum halepense, 960 h, applied alone, 40th day, read-out: Herbicidal effects Johnsongrass Ea; for pest or weed control at 100 g/ha: 1 g/a; for pest or weed control at 200 g/ha: 2 g/a
Experimental: (§4) Resin-made 1/10,000-are pots were filled with the soil of an upland field. Redroot pigweed and johnsongrass were separately seeded and were allowed to germinate in a green house. When each plant grew to the stage of 2-3 leaves, emulsions formulated with concentration gradient from predetermined amounts of two test compounds of different kinds in a similar manner to the method described in Formulation Example 16 was diluted with water to a predetermined dilution rate and then sprayed at an application rate equal to 5 l per are onto the foliage of each plant by means of a pressure-operated ULV (ultra low volume) sprayer. Influence to the weeds were observed on the 40th day after the spray of the herbicides. The results are shown in Table 9, In the table, Ea have the same meanings as in Test 7, and Ea>Ec indicates the existence of synergistic action while Ea<Ec indicates the existence of antagonistic action.

redroot pigweed [4] = assay: as above; settings: Amaranthus retroflexus, 960 h, applied alone, 40th day, read-out: Herbicidal effects Redrood pigweed Ea; for pest or weed control at 100 g/ha: 1 g/a; for pest or weed control at 200 g/ha: 2 g/a
Experimental: as §4

| SMILES | pest or weed control at 1000 g/ha (barnyardgrass) | pest or weed control at 1000 g/ha (green foxtail) | pest or weed control at 1000 g/ha (johnsongrass [1]) | pest or weed control at 1000 g/ha (morningglories) | pest or weed control at 300 g/ha (barnyardgrass) | pest or weed control at 300 g/ha (green foxtail) | pest or weed control at 300 g/ha (johnsongrass [1]) | pest or weed control at 300 g/ha (morningglories) | pest or weed control at 300 g/ha (redroot pigweed [2]) | pest or weed control at 100 g/ha (johnsongrass [3]) | pest or weed control at 200 g/ha (johnsongrass [3]) | pest or weed control at 100 g/ha (redroot pigweed [4]) | pest or weed control at 200 g/ha (redroot pigweed [4]) | Herbicidal effects (%) Green foxtail Ea (green foxtail) | pest or weed control at 1000 g/ha (redroot pigweed [2]) |
| --- | --- | --- | --- | --- | --- | --- | --- | --- | --- | --- | --- | --- | --- | --- | --- |
| COc1cc(OC)nc(Oc2ccccc2C=NOC2CCCCC2)n1 [Compound No. 3] | 40% | 20% | 40% | 0% |  |  |  |  |  |  |  |  |  |  |  |
| COc1cc(OC)nc(Oc2ccccc2C=NOCC=C(C)C)n1 [Compound No. 7] |  |  |  |  | 30% | 50% | 40% | 10% | 30% | 10% | 20% | 10% | 50% |  |  |
| COc1cc(OC)nc(Oc2ccccc2C=NOCC=Cc2ccccc2)n1 [Compound No. 9] |  |  |  |  | 50% | 70% |  | 0% | 50% | 10% | 20% | 10% | 30% | 70% |  |
| C#CCON=Cc1ccccc1Oc1nc(OC)cc(OC)n1 [Compound No. 13, 0-(2-propynyl)-2-(4,6-dimethoxy-2-pyrimidinyloxy)benzaldoxime] | 70% | 40% |  | 10% |  |  |  |  |  | 30% | 50% | 20% | 40% |  | 70% |
| C=C(Cl)CON=Cc1ccccc1Oc1nc(OC)cc(OC)n1 [Compound No. 14] |  |  |  |  | 85% | 30% | 30% | 0% | 85% |  |  |  |  |  |  |
| COc1cc(OC)nc(Oc2ccccc2C=NOCc2ccccc2)n1 [Compound No. 15] | 50% | 20% |  | 0% |  |  |  |  |  |  |  |  |  |  | 50% |
| COc1cc(OC)nc(Oc2ccccc2C=NO)n1 [Compound No. 24, 2-(4,6-dimethoxy-2-pyrimidinyloxy)-benzaloxime] |  |  |  |  | 50% | 20% | 20% | 0% | 50% |  |  |  |  |  |  |
| COc1cc(OC)nc(Oc2ccccc2C=NOCC=Cc2ccccc2Cl)n1 [Compound No. 27] |  |  |  |  | 50% | 30% | 30% | 10% | 50% |  |  |  |  |  |  |
| COc1cc(OC)nc(Oc2ccccc2C=NOCC=Cc2ccc(Cl)cc2)n1 [Compound No. 28] |  |  |  |  | 50% | 30% | 30% | 0% | 50% |  |  |  |  |  |  |
| COc1cc(OC)nc(Oc2ccccc2C=NOCC=Cc2cccc(C)c2)n1 [Compound No. 34, 0-(3-methylcinnamyl)-2-(4,6-dimethoxy-2-pyrimidinyloxy)benzaldoxime] |  |  |  |  | 30% | 30% | 30% | 0% | 30% |  |  |  |  |  |  |
| COc1cc(OC)nc(Oc2ccccc2C=NOCC=Cc2ccccc2C)n1 [Compound No. 39] |  |  |  |  | 50% | 50% | 50% | 10% | 50% | 10% | 20% | 10% | 30% |  |  |
| COc1cc(OC)nc(Oc2ccccc2C=NOC(C)C)n1 [compound 6] | 50% | 30% | 30% | 0% |  |  |  |  |  |  |  |  |  |  | 50% |
| CC#CCON=Cc1ccccc1Oc1nc(OC)cc(OC)n1 [compound 10] | 10% | 20% | 20% | 0% |  |  |  |  |  |  |  |  |  |  | 10% |
| COc1cc(OC)nc(Oc2ccccc2C=NOCC=CCl)n1 [compound 11] | 30% | 10% |  | 0% |  |  |  |  |  |  |  |  |  |  | 30% |
| COc1cc(OC)nc(Oc2ccccc2C=NOCc2cccc(C)c2)n1 [compound 20] |  |  |  |  | 30% | 10% |  | 10% | 30% |  |  |  |  |  |  |
| COc1cc(OC)nc(Oc2ccccc2C=NOCC=Cc2ccc(Cl)cc2Cl)n1 [compound 30] |  |  |  |  | 40% | 20% | 10% | 0% | 40% |  |  |  |  | 20% |  |
| COc1cc(OC)nc(Oc2ccccc2C=NOCC=Cc2ccccc2C(F)(F)F)n1 [compound 32] | 50% | 30% | 30% | 0% |  |  |  |  |  |  |  |  |  |  | 50% |
| COc1cccc(C=CCON=Cc2ccccc2Oc2nc(OC)cc(OC)n2)c1 [compound 38] |  |  |  |  | 50% | 40% | 40% | 10% | 50% |  |  |  |  |  |  |
| COc1cc(OC)nc(Oc2ccccc2C=NOCC=Cc2ccccc2Br)n1 [compound 40] |  |  |  |  | 20% | 10% |  | 0% | 20% |  |  |  |  |  |  |
| COc1cc(OC)nc(Oc2ccccc2C=NOCC#Cc2ccccc2)n1 [compound 42] |  |  |  |  | 50% | 50% | 50% | 10% | 50% |  |  |  |  |  |  |
